Legend:
[1] = Inhibition of rat recombinant geranylgeranyltransferase type I expressed in Escherichia coli assessed as reduction in geranylgeranylation of RhoA incubated for 30 mins in presence of [3H]GGPP by scintillation counting assay relative to control
K562 = experiment: Antiproliferative activity against human K562 cells assessed as inhibition of cell proliferation incubated for 72 hrs by CCK8 assay; format: functional, cell-based; details: K562, 72 h
Jurkat = experiment: Antiproliferative activity against human Jurkat cells assessed as inhibition of cell proliferation incubated for 72 hrs by CCK8 assay; format: functional, cell-based
Rattus norvegicus [2] = species on record: Rattus norvegicus; experiment: Inhibition of rat recombinant geranylgeranyltransferase type I expressed in Escherichia coli assessed as residual enzyme activity for geranylgeranylation of RhoA at 50 uM incubated for 30 mins in presence of [3H]GGPP by scintillation counting assay relative to control
[3] = Inhibition of rat recombinant geranylgeranyltransferase type I expressed in Escherichia coli assessed as reduction in geranylgeranylation of K-Ras4B incubated for 30 mins in presence of [3H]GGPP by scintillation counting assay
Rattus norvegicus [4] = species on record: Rattus norvegicus; experiment: Inhibition of rat recombinant geranylgeranyltransferase type I expressed in Escherichia coli assessed as residual enzyme activity for geranylgeranylation of K-Ras4B at 50 uM incubated for 30 mins in presence of [3H]GGPP by scintillation counting assay relative to control
[5] = molecular target: Protein farnesyltransferase (Rattus norvegicus, UniProt Q02293+Q04631); experiment: Inhibition of rat recombinant FTase alpha/beta expressed in Escherichia coli using K-Ras4B as a substrate as and [3H]farnesyl pyrophosphate incubated for 30 mins by scintillation counting assay
[6] = molecular target: T1, Geranylgeranyl transferase type-2 (Homo sapiens, UniProt P53611+Q92696); experiment: Inhibition of RabGGTase (unknown origin) using YPTI as substrate protein and [3H]geranylgeranyl pyrophosphate incubated for 20 mins by scintillation counting assay; format: protein-complex assay
T1 sequence (P53611 whole entry): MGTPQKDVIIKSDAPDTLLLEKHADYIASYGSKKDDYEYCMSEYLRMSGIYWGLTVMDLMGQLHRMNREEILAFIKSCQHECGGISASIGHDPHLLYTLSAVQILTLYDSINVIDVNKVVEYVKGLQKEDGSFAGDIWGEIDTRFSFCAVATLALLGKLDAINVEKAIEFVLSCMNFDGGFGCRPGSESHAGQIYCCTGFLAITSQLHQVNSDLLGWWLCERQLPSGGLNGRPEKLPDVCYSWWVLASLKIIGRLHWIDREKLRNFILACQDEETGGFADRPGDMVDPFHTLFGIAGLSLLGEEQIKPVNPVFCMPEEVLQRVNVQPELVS
T1 sequence (Q92696 whole entry): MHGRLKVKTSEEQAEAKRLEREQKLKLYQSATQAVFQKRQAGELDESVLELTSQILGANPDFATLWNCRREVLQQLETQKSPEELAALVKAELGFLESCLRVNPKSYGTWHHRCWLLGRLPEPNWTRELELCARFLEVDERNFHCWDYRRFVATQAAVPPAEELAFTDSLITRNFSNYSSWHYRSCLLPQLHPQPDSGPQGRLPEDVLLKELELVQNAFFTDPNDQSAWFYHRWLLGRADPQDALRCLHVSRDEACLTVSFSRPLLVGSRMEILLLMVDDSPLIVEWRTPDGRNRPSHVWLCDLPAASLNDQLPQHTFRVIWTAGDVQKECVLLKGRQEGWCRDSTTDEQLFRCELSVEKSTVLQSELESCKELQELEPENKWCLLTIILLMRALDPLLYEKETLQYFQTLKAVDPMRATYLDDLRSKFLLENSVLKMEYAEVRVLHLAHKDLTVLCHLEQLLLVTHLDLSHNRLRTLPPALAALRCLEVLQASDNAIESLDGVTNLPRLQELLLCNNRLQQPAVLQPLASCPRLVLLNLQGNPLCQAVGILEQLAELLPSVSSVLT

Row | SMILES | IC50 [1] [µM] | also measured
1 | COC(=O)[C@H](Cc1ccccc1)NC(=O)COCC1=C[C@@H](C(C)(C)C)N(S(=O)(=O)c2ccccc2C)[C@H]1c1ccc(Cl)cc1 | 2.1 to 20 | IC50 (K562): 5.8 to 6.01 µM; GI50 (Jurkat): 3.51 to 5.1 µM
2 | CC(C)C[C@H](NC(=O)C1=CC[C@@H](c2cccc(Br)c2)N(S(=O)(=O)c2ccc(F)cc2)[C@H]1c1cccc(Cl)c1)C(N)=O | 6.9 to 32.9 | GI50 (K562): 1.7 to 10.2 µM; GI50 (Jurkat): 0.32 to 1.76 µM
3 | CCOC(=O)C1=C[C@@H](C(C)(C)C)N(S(=O)(=O)c2ccccc2C)[C@H]1c1ccc(Cl)cc1 | – | IC50 (K562): > 25 µM
4 | CC(C)C[C@H](NC(=O)C1=CC[C@@H](c2cccc(Cl)c2)N(S(=O)(=O)c2ccc(Br)cc2)[C@H]1c1cccc(Br)c1)C(N)=O | > 50 | GI50 (K562): 4.37 to 12.9 µM; GI50 (Jurkat): 2.22 to 6.38 µM
5 | Cc1ccccc1S(=O)(=O)N1[C@@H](c2cccc(Cl)c2)C(CO)=CC[C@H]1c1ccc(Cl)cc1 | > 100 | GI50 (K562): 5.8 µM; GI50 (Jurkat): 7.5 µM
6 | NC(=O)[C@H](Cc1ccccc1)NC(=O)C1=CC[C@@H](c2cccc(Cl)c2)N(S(=O)(=O)c2ccc(Br)cc2)[C@H]1c1cccc(Br)c1 | > 20 | –
7 | CC[C@@H]1C=C(C(=O)O)[C@H](c2ccc(F)cc2)N1S(=O)(=O)c1ccc(C)cc1 | 200 | IC50 [3]: 250 µM
8 | Cc1ccccc1S(=O)(=O)N1[C@@H](c2cccc(Cl)c2)C(C(N)=O)=CC[C@H]1c1ccc(Cl)cc1 | > 20 | GI50 (Jurkat): 5.36 µM
9 | COC(=O)[C@H](CC(C)C)NC(=O)C1=CC[C@@H](c2ccc(Cl)cc2)N(S(=O)(=O)c2ccccc2C)[C@H]1c1cccc(Cl)c1 | 20 to 50 | GI50 (Jurkat): 3.53 to 6.1 µM
10 | Cc1ccc(S(=O)(=O)N2[C@@H](c3ccccc3)C(C(=O)O)=CC[C@H]2c2ccc(F)cc2)cc1 | 120 | IC50 [3]: 80 µM
11 | CCCCCCS[C@H]1[C@@H](C(=O)O)[C@H](c2ccc(Br)cc2)N(S(=O)(=O)c2ccc(C)cc2)[C@@H]1CCCCCC | > 50 | IC50 [5]: > 100 µM; IC50 [6]: 2.2 µM
12 | CC(C)C[C@H](NC(=O)C1=CC[C@@H](c2cccc(Cl)c2)N(S(=O)(=O)c2ccc(Br)cc2)[C@H]1c1cccc(Cl)c1)C(N)=O | > 20 | –
13 | CC(C)(C)[C@@H]1C=C(C(=O)N[C@@H](Cc2ccccc2)C(N)=O)[C@H](c2ccc(Cl)c(Cl)c2)N1S(=O)(=O)c1c(Cl)cccc1Cl | > 50 | GI50 (Jurkat): 4.91 to 5.28 µM
14 | Cc1ccc(S(=O)(=O)N2[C@@H](c3ccc(Cl)c(Cl)c3)C(C(=O)O)=C[C@H]2C(C)(C)C)cc1 | 40 | IC50 [3]: 33 µM
15 | CCCCCS[C@H]1[C@@H](C(=O)O)[C@H](c2ccc(Br)cc2)N(S(=O)(=O)c2ccc(C)cc2)[C@@H]1CCC | > 50 | IC50 [5]: > 100 µM; IC50 [6]: 3.6 µM
16 | Cc1ccccc1S(=O)(=O)N1[C@@H](c2ccc(Cl)cc2)C(C(N)=O)=C[C@H]1C(C)(C)C | – | IC50 (K562): 11 µM
17 | Cc1ccc(S(=O)(=O)N2[C@@H](c3cccc(F)c3)C(C(=O)O)=C[C@H]2C(C)(C)C)cc1 | 23 | Activity (Rattus norvegicus [2]): 9.1%; IC50 [3]: 18 µM; Activity (Rattus norvegicus [4]): 23.7%
18 | CC(C)(C)[C@@H]1C=C(C(=O)O)[C@H](c2ccccc2)N1S(C)(=O)=O | 23 | IC50 [3]: 15 µM
19 | CC(C)(C)[C@@H]1C=C(C(=O)N[C@@H](Cc2ccccc2)C(N)=O)[C@H](c2ccc(Cl)c(Cl)c2)N1S(=O)(=O)c1ccccc1Br | > 20 | –
20 | Cc1ccc(S(=O)(=O)N2[C@H](C)C=C(C(=O)O)[C@@H]2c2cccc(Cl)c2)cc1 | 30 | IC50 [3]: 20 µM
21 | Cc1ccc(S(=O)(=O)N2[C@H](C)C=C(C(=O)O)[C@@H]2c2ccc(Cl)c(Cl)c2)cc1 | 45 | IC50 [3]: 38 µM
22 | CCCCCCS[C@H]1[C@@H](C(=O)O)[C@H](c2ccc(Br)cc2)N(S(=O)(=O)c2ccc(C)cc2)[C@@H]1CC | > 50 | IC50 [5]: > 100 µM; IC50 [6]: 4.8 µM
23 | CC(C)(C)[C@@H]1C=C(C(=O)N[C@@H](Cc2ccccc2)C(N)=O)[C@H](c2ccc(Cl)c(Cl)c2)N1S(=O)(=O)C(C)(C)C | 2.7 to 50 | GI50 (K562): 4.22 to 5.9 µM; GI50 (Jurkat): 4.57 to 5.91 µM
24 | COC(=O)[C@H](Cc1ccccc1)NC(=O)C1=C[C@@H](C(C)(C)C)N(S(=O)(=O)c2ccccc2C)[C@H]1c1ccc(Cl)cc1 | > 50 | GI50 (K562): 14 to 17 µM; IC50 (K562): 10.5 µM; GI50 (Jurkat): 10.5 to 19 µM
25 | CCCCC[C@@H]1[C@@H](Sc2ccc(C)cc2)[C@H](C(=O)O)[C@H](c2ccc(C)cc2)N1S(=O)(=O)c1ccc(C)cc1 | 100 | IC50 [3]: 65 µM
26 | CC(C)(C)[C@@H]1C=C(C(=O)O)[C@H](c2ccc(Cl)cc2)N1S(C)(=O)=O | > 50 | IC50 [3]: 45 µM
27 | Cc1ccc(S(=O)(=O)N2C[C@@H](C(=O)O)[C@H](Sc3ccccc3)C[C@H]2c2ccccc2F)cc1 | – | Activity (Rattus norvegicus [2]): 8.1%; Activity (Rattus norvegicus [4]): 51%

More lines, main results first:

Row | IC50 [1] [µM] | SMILES | also measured
28 | 0.032 | O=C(N[C@@H](Cc1ccccc1)C(=O)O)C1=CC[C@@H](c2cccc(Cl)c2)N(S(=O)(=O)c2ccc(Br)cc2)[C@H]1c1cccc(Br)c1 | –
29 | < 2.5 | CCC[C@@H]1[C@@H](Sc2ccc(OC)cc2)[C@@H](C(=O)O)[C@H](c2ccc(Cl)c(Cl)c2)N1S(=O)(=O)c1ccc(C)cc1 | Activity (Rattus norvegicus [2]): 1.1%; IC50 [3]: < 2 µM; Activity (Rattus norvegicus [4]): 10.9%
30 | 0.04 | CC(C)C[C@H](NC(=O)C1=CC[C@@H](c2cccc(Cl)c2)N(S(=O)(=O)c2ccc(Br)cc2)[C@H]1c1cccc(Br)c1)C(=O)O | –
31 | 5.1 | CCCCCCS[C@H]1[C@@H](C(=O)O)[C@H](c2ccc(Cl)c(Cl)c2)N(S(=O)(=O)c2ccc(C)cc2)[C@@H]1CCC | IC50 [5]: > 100 µM; IC50 [6]: 7 µM
32 | 0.212 | O=C(O)C1=CC[C@@H](c2cccc(Br)c2)N(S(=O)(=O)c2ccc(F)cc2)[C@H]1c1cccc(Cl)c1 | –
33 | 4.4 | CC(C)(C)[C@@H]1C=C(C(=O)O)[C@H](c2ccc(Cl)c(Cl)c2)N1S(=O)(=O)c1c(Cl)cccc1Cl | –
34 | 0.841 | O=C(O)C1=CC[C@@H](c2cccc(Br)c2)N(S(=O)(=O)c2ccc(Cl)cc2)[C@H]1c1cccc(F)c1 | –
35 | 0.31 | O=C(O)C1=CC[C@@H](c2ccc(Cl)c(Cl)c2)N(S(=O)(=O)c2ccc(Cl)cc2)[C@H]1c1cccc(Cl)c1 | –
36 | 0.155 to 0.169 | O=C(O)C1=CC[C@@H](c2cccc(Cl)c2)N(S(=O)(=O)c2ccc(Br)cc2)[C@H]1c1cccc(Br)c1 | –
37 | 0.256 | Cc1cccc([C@H]2C(C(=O)O)=CC[C@@H](c3cccc(Br)c3)N2S(=O)(=O)c2ccc(Cl)cc2)c1 | –
38 | 0.5 | COC(=O)[C@H](CC(C)C)NC(=O)c1ccc(NCc2cnc[nH]2)cc1-c1ccccc1C | IC50 [3]: 0.6 µM
39 | 0.125 to 0.154 | O=C(O)C1=CC[C@@H](c2cccc(Br)c2)N(S(=O)(=O)c2ccc(Cl)cc2)[C@H]1c1cccc(Cl)c1 | –
40 | 0.086 to 0.0871 | O=C(O)C1=CC[C@@H](c2cccc(Cl)c2)N(S(=O)(=O)c2ccc(Br)cc2)[C@H]1c1cccc(Cl)c1 | –
41 | 1.3 to 20 | NC(=O)[C@H](Cc1ccccc1)NC(=O)C1=CC[C@@H](c2cccc(Cl)c2)N(S(=O)(=O)c2ccc(Br)cc2)[C@H]1c1cccc(Cl)c1 | GI50 (K562): 7.69 to 10.3 µM; GI50 (Jurkat): 3.57 to 4.86 µM
42 | 0.398 | O=C(O)C1=CC[C@@H](c2ccc(Br)cc2)N(S(=O)(=O)c2ccc(Br)cc2)[C@H]1c1cccc(Cl)c1 | –
43 | 0.6 | NC(=O)[C@H](Cc1ccccc1)NC(=O)C1=CC[C@@H](c2cccc(Cl)c2)N(S(=O)(=O)c2ccc(Cl)cc2)[C@H]1c1cccc(Cl)c1 | –
44 | 4.4 | CC(C)(C)[C@@H]1C=C(C(=O)O)[C@H](c2ccc(Cl)c(Cl)c2)N1S(=O)(=O)C(C)(C)C | –
45 | 0.33 | Cc1cccc([C@@H]2CC=C(C(=O)O)[C@H](c3cccc(Br)c3)N2S(=O)(=O)c2ccc(Br)cc2)c1 | –
46 | 0.3 to 0.45 | NC(=O)[C@H](Cc1ccccc1)NC(=O)C1=CC[C@@H](c2cccc(Br)c2)N(S(=O)(=O)c2ccc(Cl)cc2)[C@H]1c1cccc(Cl)c1 | –
47 | 0.529 | O=C(O)C1=CC[C@@H](c2cccc(Br)c2)N(S(=O)(=O)c2ccc(Br)cc2)[C@H]1c1cccc(Cl)c1 | –
48 | 0.525 | O=C(O)C1=CC[C@@H](c2cccc(Br)c2)N(S(=O)(=O)c2ccc(Br)cc2)[C@H]1c1cccc(Br)c1 | –
49 | 0.241 | O=C(O)C1=CC[C@@H](c2cccc(Cl)c2)N(S(=O)(=O)c2ccc(Cl)cc2)[C@H]1c1cccc(Cl)c1 | –

Source: ChEMBL document CHEMBL4421722, “Inhibitors of protein prenyltransferases” (2013)
